Laboratory results published in US6737407B1, “Treatment of obesity” (Metabolic Pharmaceuticals, Ltd., priority 1997, dated 2004).
Where no end group is shown, it is not given here.

How the values were obtained:
C57BL/6J (ob/ob) mice [1] = test: Plasma triglyceride and total cholesterol in obese mice after 18-day chronic treatment; format: in vivo, mouse; conditions: for Plasma total cholesterol / Plasma triglyceride: after 18-day treatment
Protocol: The animals were anaesthetised with sodium pentobarbitone (80 mg/kg body weight) 12 hr after the last dose of hGH 177-191. Blood samples were collected from the tail vein of anaesthetised animals 45 mins after the administration of anaesthetic. After being centrifuged at 2000×g for 5 minutes, plasma was removed from the samples and used for metabolite assays. Triglyceride and total cholesterol in plasma were measured by enzyme-spectrophotometric methods. The reagents are based on either a modified glycerol phosphate oxidase (GPO)-Trinder's type colour reaction^24 or a cholesterol oxidase-4-aminoantipyrine method^25. All assays were performed with the CentrifiChem System 400 (Union Carbide) containing an automated pipetter, a centrifugal analyser and a recording spectrophotometer. Seronorm Lipid (Nycomed Pharma Co., Oslo, Norway) was used as the calibrator.

[2] = test system: adipose tissue of the C57BL/6J (ob/ob) mice; test: Ex vivo lipolysis in adipose tissue of treated ob/ob mice (glycerol release); set-up: species or system mouse; conditions: both sexes, ob/ob mice after 18-day treatment
Protocol: FIGS. 6A & 6B depict the ex vivo effect on lipolysis in adipose tissue of the C57BL/6J (ob/ob) male mice (6A) and female mice (6B) after 18-days treatment with hGH 177-191. […] Values are mean±SEM of 12 determinations from 6 animals of each group. The differences between the hGH 177-191 treated and saline control groups were statistically significant.
Adipose tissues were removed from animals and sliced into segments of approximately 200 mg each. Then the tissues were pre-incubated in 25 ml vials containing 2 ml of Krebs-Ringerbicarbonate (KRB) buffer, 4% defatted BSA and 5.5 mM glucose under an atmosphere of carbogen (95%O2/ 5%CO2) at 37° C. for 1 hour. Tissues were then transferred to another vials with fresh medium and the incubation was initiated by adding hGH 177-191 peptide or analogues into the vials. The mixtures were then incubated at 37° C. for 90 minutes. After incubation, the tissues wee removed and aliquots (200 μl) of samples withdrawn from the medium were assayed for the contents of glycerol or free fatty acid (FFA) either by the enzyme assay (glycerol kinase) or calorimetric (copper-dye) spectrometry. The NADH or color produced was then monitored by the absorption at 340 nm and 610 nm, respectively.

[3] = test system: adipose tissues of the C57BL/6J (ob/ob) mice; test: Ex vivo lipogenesis in adipose tissues of treated ob/ob mice ([C14]-glucose incorporated into lipid); set-up: species or system mouse
Description: FIGS. 5A & 5B depict the ex vivo effect on lipogenesis in adipose tissues of the C57BL/6J (ob/ob) male mice (5A) and female mice (5B) after 18-day treatment with hGH 177-191. […] The differences between the hGH 177-191 treated and saline control groups were statistically significant.
(§1) The procedure for the isolation and measurement of intact epididymal fat pads was established in previous studies of epididymal growth of GH-deficient (lit/lit) mice. In the present study, white adipose tissues, either whole epididymal or parametrical fat pads, were excised with the identical techniques as previously described^22 from the mice immediately after sacrifice. The tissues were washed in cold physiological saline, blotted and weighed. For ex vivo lipogenic assays, the portions of adipose tissues without blood vessels were used.
The rate of the incorporation of exogenous [C^14]-glucose into total lipid in adipose tissue was measured as the index of anti-lipogenic activity of hGH 177-191.
Adipose tissues were sliced into segments of approximately 200 mg each and then placed in Krebs-Ringer bicarbonate (KRB) buffer (pH 7.4) containing 2% defatted BSA, and glucose (0.1 mg/ml) and gassed with 95% O2-5% CO2 at 37° C. […] The [C^14] radioactivity was measured with a liquid scintillation counter. The rates of total lipid synthesis were expressed as μmol [C^14]-glucose incorporated into lipid/g tissue/hr.

C57BL/6J (ob/ob) mice [4] = test: Chronic 18-day treatment of obese mice with hGH 177-191: body weight gain, food consumption, adipose tissue weight; format: in vivo, mouse; conditions: for Initial body wt.: treated group, before 18-day daily i.p. 200 μg/kg
Protocol: FIGS. 1A & 1B show the effect of hGH 177-191 peptide on cumulative body weight gains in male (1A) and female (1B) C57BL/6J (ob/ob) mice during the 18-day treatment period. Animals were given a daily intraperitoneal injection of 0.1 ml of either saline or hGH 177-191 (200 μg/kg body weight). Each points represents the mean±SEM of 6 animals.
FIGS. 2A & 2B show the average daily food consumption (g/mouse/day) of C57BL/6J (ob/ob) mice during an 18day treatment period with hGH 177-191. The treatment for the four groups of animals was as described in FIGS. 1A & 1B. Each point represents the mean±SEM of 6 animals.
The animals of the same age and same sex were randomly divided into two groups, housed 6 per cage and maintained on a normal 12-hr light/dark cycle at a constant room temperature of 25° C. in the animal house of the Department of Biochemistry and—Molecular Biology, Monash University, Clayton, Australia. Animals were fed ad libitum on pre-determined quantity of animal pellets (Clark King, Melboume, Australia) and allowed free access to water at all times. The animals were given a daily intraperitoneal (i.p) injection of 0.1 ml of either the synthetic peptide (200-500 μg/kg body weight) or equivalent volume of physiological saline (0.9% sodium chloride) for appropriate number of days. The i.p. injection was administered with a 30G×½″ (0.31×13 mm) needle on a 1-ml disposable tuberculin syringes, and the site of injection was the lower left quadrant of the abdomen of the animals. To study the effects of controlled-delivery of hGH 177-191 and analogues, slow-release peptide-pellets in a diameter of 3 mm were implanted intradermally in the abdominal region of Zucker rats under anaesthesia. The body weight and food intake were monitored for the periods of time as indicated.
Cumulative weight gain and food consumption were determined at 3-day intervals by the measurements of body weight and uneaten food remaining in the cages. The animals were placed in a covered chamber to minimise movement during the weighing procedure. The food consumption data were obtained by subtracting the amount of uneaten food remaining in the cages from the original provision.
as §1

[5] = female ob/ob mice, 18-day daily i.p. 200 μg/kg
[6] = male ob/ob mice, 18-day daily i.p. 200 μg/kg

Sequence: LRIVQCRSVEGSCGF (cysteine pairing not given here) [Ref No. 9401]
- plasma levels of triglyceride versus control (in words) (C57BL/6J (ob/ob) mice [1]; both sexes, ob/ob mice): did not influence
- plasma levels of cholesterol versus control (in words) (C57BL/6J (ob/ob) mice [1]; female ob/ob mice): only slightly lower
- Plasma total cholesterol (C57BL/6J (ob/ob) mice [1]; female ob/ob mice): 2.84 ± 0.29 mmol/L
- Plasma triglyceride (C57BL/6J (ob/ob) mice [1]; female ob/ob mice): 0.38 ± 0.11 mmol/L
- Plasma triglyceride (C57BL/6J (ob/ob) mice [1]; male ob/ob mice): 0.58 ± 0.16 mmol/L
- Plasma total cholesterol (C57BL/6J (ob/ob) mice [1]; male ob/ob mice, listed as hGH 177-191): 3.52 ± 0.39 mmol/L
- lipolytic activity in adipose tissues of treated animals (in words) [2]: increase significantly
- tissue lipogenic activity ([C14]-glucose incorporated into lipid) ([3]; female ob/ob mice after 18-day treatment): 2.99±0.21 pmol/mg tissue/min
- tissue lipogenic activity ([C14]-glucose incorporated into lipid) ([3]; male ob/ob mice after 18-day treatment): 2.33±0.21 pmol/mg tissue/min
- average daily body weight gain lower than control (C57BL/6J (ob/ob) mice [4]; both male and female ob/ob mice): approximately 27%
- Adipose tissue (intact parametrical fat pads) (C57BL/6J (ob/ob) mice [4]; [5]): 3.26 g
- Body wt. gain (C57BL/6J (ob/ob) mice [4]; [5]): 4.0 g
- Final body wt. (C57BL/6J (ob/ob) mice [4]; [5]): 52.2 g
- daily body weight gain (C57BL/6J (ob/ob) mice [4]; [5]): 0.22 ± 0.04 g/day
- reduction of adipose tissue weight versus control (C57BL/6J (ob/ob) mice [4]; female ob/ob mice, parametrical fat pads): ≤ 12%
- Initial body wt. (C57BL/6J (ob/ob) mice [4]; female ob/ob mice): 48.2 g
- cumulative body weight gain versus control (in words) (C57BL/6J (ob/ob) mice [4]; male and female ob/ob mice, 18-day daily i.p. 200 μg/kg): clear reduction
- average daily food consumption versus control (in words) (C57BL/6J (ob/ob) mice [4]; male and female ob/ob mice, 18-day treatment): no significant difference
- Adipose tissue (intact epididymal fat pads) (C57BL/6J (ob/ob) mice [4]; [6]): 2.52 ± 0.25 g
- Body wt. gain (C57BL/6J (ob/ob) mice [4]; [6]): 2.9 ± 0.6 g
- Final body wt. (C57BL/6J (ob/ob) mice [4]; [6]): 51.5 ± 2.3 g
- daily body weight gain (C57BL/6J (ob/ob) mice [4]; [6]): 0.16 ± 0.04 g/day
- reduction of adipose tissue weight versus control (C57BL/6J (ob/ob) mice [4]; male ob/ob mice, epididymal fat pads): up to 20%
- Initial body wt. (C57BL/6J (ob/ob) mice [4]; male ob/ob mice): 48.6 ± 2.0 g
